From the Deep4Chem optical property database
Values joined by “and” are separate entries in the source; they are usually repeats but may differ in a detail not shown here. Equal values may be shown once.

Assay: solvent given as SMILES

With Cc1c2ccc(=[N+]3CCCCC3)cc-2oc2cc(N3CCCCC3)ccc12 the absorption maximum (in ClCCl) was 555 nm.
Compound CC(C)(C)c1ccc(-c2c(-c3cccc(-n4c5ccccc5c5ccccc54)c3)c(C#N)c(-c3cccc(-n4c5ccccc5c5ccccc54)c3)c(-c3ccc(C(C)(C)C)cc3)c2-c2ccc(C(C)(C)C)cc2)cc1 has an absorption maximum (in C1CCOC1) of 360 nm.
c1ccc([B-]2(c3ccccc3)Oc3ccc4ccccc4c3-c3c4ccccc4cc[n+]32)cc1 gave an absorption maximum (in Cc1ccccc1) of 427 nm.
Cc1cc2cc(C)c3c4ccccc4[nH]c3c2s1 showed an absorption maximum (in ClCCl) of 312 nm.
In the case of Cc1ccc(C2=C3C=C4C(=[N+]3[B-](F)(F)n3c2cc2c3-c3ccccc3C23c2ccccc2-c2ccccc23)c2ccccc2C42c3ccccc3-c3ccccc32)cc1, the absorption maximum (in C1CCOC1) is reported as 634 nm.
For C#CCNC1=C2C=CC=[N+]2[B-](F)(F)n2cccc21, the absorption maximum (in C1CCCCC1) was 422.5 nm and 426 nm, the absorption maximum (in CC(C)=O) was 406 nm and the absorption maximum (in CCCCO) was 406 nm. The absorption maximum (in CCCO) was 408 nm, the absorption maximum (in CCO) was 406.5 nm and 406 nm and the absorption maximum (in CCOC(C)=O) was 408.5 nm. It also gave an absorption maximum (in CN(C)C=O) of 404 nm, an absorption maximum (in CO) of 405 nm and an absorption maximum (in CS(C)=O) of 404 nm. For the same compound, the absorption maximum (in Cc1ccccc1) was 421 nm, the absorption maximum (in ClC(Cl)Cl) was 418 nm and the absorption maximum (in OCC(F)(F)F) was 404 nm. For the same compound, the absorption maximum (in c1ccccc1) was 422 nm.
Compound CCC1=C(C)C2=C(C)c3cccn3[B-](F)(F)[N+]2=C1C has an absorption maximum (in C1CCCCC1) of 504 nm, an absorption maximum (in CC(C)=O) of 495 nm and an absorption maximum (in CCO) of 497 nm. The absorption maximum (in CCOC(C)=O) was 496 nm, the absorption maximum (in CO) was 495.5 nm and the absorption maximum (in OCC(F)(F)F) was 492 nm.
Work on CCOC(=O)c1ccccc1-c1c2ccc(=[N+](CC)CC)cc-2oc2c1c(=O)oc1cc3c(cc12)CCCN3C yielded an absorption maximum (in CCO) of 602 nm, an absorption maximum (in ClC(Cl)Cl) of 608 nm and an absorption maximum (in O) of 602 nm.
With COC(=O)c1cc(=O)n(Cc2ccccc2)c2cc(-c3ccc(N(C)C)cc3)sc12 the absorption maximum (in CC#N) was 432 nm and the absorption maximum (in ClCCl) was 436 nm.
Work on Cc1ccc(N(c2ccc(C)cc2)c2ccc(-c3cc4c(cc(-c5ccc(N(c6ccc(C)cc6)c6ccc(C)cc6)cc5)c5nsnc54)c4nsnc34)cc2)cc1 yielded an absorption maximum (in Cc1ccccc1) of 520 nm and an absorption maximum (in ClCCl) of 518 nm.
For O=[N+]([O-])c1ccc(-c2nc(/C=C/c3ccc(Cl)cc3)c(/C=C/c3ccc(Cl)cc3)[nH]2)cc1, the absorption maximum (in ClCCl) was 425 nm.
Clc1ccccc1N1c2sc3ccccc3c2Sc2c1sc1ccccc21 showed an absorption maximum (in ClCCl) of 421 nm.
For CC[n+]1nc2ccc(N(C)C)cc2c2cc(C)ccc21, the absorption maximum (in O) was 483 nm.
COc1cc(C(=O)O)ccc1O showed an absorption maximum (in C1CCCCC1) of 287.2 nm, an absorption maximum (in C1COCCO1) of 290 nm and an absorption maximum (in CC#N) of 290 nm. For the same compound, the absorption maximum (in CC(C)(C)O) was 291 nm, the absorption maximum (in CC(C)CO) was 292.4 nm and the absorption maximum (in CC(C)O) was 291.6 nm. For the same compound, the absorption maximum (in CCOC(C)=O) was 290.5 nm, the absorption maximum (in CO) was 293.6 nm and the absorption maximum (in O) was 285 nm and 283.2 nm.
For CCB1c2ccccc2Nc2ccccc21, the absorption maximum (in ClCCl) was 381 nm.
Work on CCOC(=O)CCCCCn1c2ccccc2c(=O)c2cc3c(cc21)c(=O)c1cc(I)ccc1n3CCCCCC(=O)OCC yielded an absorption maximum (in CO) of 535 nm.
In the case of O=C([O-])c1cc2c(ccc3ccccc32)oc1=O, the absorption maximum (in O) is reported as 360 nm.
In the case of CC1=[N+]2C(=C(Oc3ccc4c(c3)CC[C@@H]3[C@@H]4CC[C@]4(C)C(=O)CC[C@@H]34)c3ccc(C)n3[B-]2(F)F)C=C1c1cc2n(c1)[B-](F)(F)[N+]1=CC=CC1=C2c1c(C)cc(C)cc1C, the absorption maximum (in C1CCCCC1) is reported as 579.5 nm and the absorption maximum (in CCOC(C)=O) is reported as 574 nm.
Work on c1ccc2cc(-n3cnc4ccccc43)ccc2c1 yielded an absorption maximum (in C1CCCCC1) of 275 nm, an absorption maximum (in C1CCOC1) of 277 nm and an absorption maximum (in CC#N) of 278 nm. The absorption maximum (in CCO) was 277 nm, the absorption maximum (in CCOC(C)=O) was 278 nm and the absorption maximum (in CCOCC) was 276 nm. For the same compound, the absorption maximum (in CO) was 275 nm, the absorption maximum (in Cc1ccccc1) was 275 nm and the absorption maximum (in ClC(Cl)Cl) was 276 nm.
COc1cc2c(cc1OC)C1=C[C@H](c3ccccc3)C3(C(C#N)=C(C#N)N1CC2)c1ccccc1-c1ccccc13 gave an absorption maximum (in ClCCl) of 310 nm.
For CCn1c2ccccc2c2cc(/C=C/c3cc(/C=C/c4ccc5c(c4)c4ccccc4n5CC)nc(SC)n3)ccc21, the absorption maximum (in C1CCOC1) was 406 nm, the absorption maximum (in CCOC(C)=O) was 402 nm and the absorption maximum (in CN(C)C=O) was 413 nm. It also gave an absorption maximum (in Cc1ccccc1) of 405 nm and an absorption maximum (in ClCCl) of 409 nm.
For CCCCn1c2ccc(C#N)cc2c2cc(C#N)ccc21, the absorption maximum (in ClCCl) was 349 nm.
N#Cc1ccc(-n2c(-c3ccc(-c4ccc(N(c5ccccc5)c5ccccc5)cc4)s3)nc3c4ccccc4c4ccccc4c32)c2ccccc12 gave an absorption maximum (in ClCCl) of 308 nm.
Compound CCCCC(CC)CN1C(=O)c2cc(Oc3ccc(OC)cc3)c3c4c(Oc5ccc(C(C)(C)C)cc5)cc5c6c(cc(Oc7ccc(C(C)(C)C)cc7)c(c7c(Oc8ccc(OC)cc8)cc(c2c37)C1=O)c64)C(=O)N(c1c(C(C)C)cccc1C(C)C)C5=O (centres undefined) has an absorption maximum (in Cc1ccccc1) of 581 nm.
Compound CCN(C(C)=O)c1cc2c(cc1C)C(c1ccccc1C(=O)O)=C1CCCC(/C=C/C3=[N+](C)c4ccccc4C3(C)C)=C1O2 has an absorption maximum (in CCO) of 656 nm.
Compound C(=C\c1nc(/C=C/c2ccccc2)nc(/C=C/c2ccccc2)n1)/c1ccccc1 has an absorption maximum (in ClCCl) of 327 nm.
Compound CCC1(CC)c2ccccc2-c2c1c1c(c3c2C(CC)(CC)c2cc(-c4cccs4)ccc2-3)C(CC)(CC)c2cc(N(c3ccccc3)c3ccccc3)ccc2-1 has an absorption maximum (in C1CCOC1) of 355 nm.
For COc1ccc2c(=O)c3c([nH]c2c1)-c1cc(Cl)ccc1NC3(C)C, the absorption maximum (in C1CCOC1) was 411 nm, the absorption maximum (in CC#N) was 421 nm and the absorption maximum (in CCCCO) was 426 nm. The absorption maximum (in CCCO) was 426 nm, the absorption maximum (in CCO) was 426 nm and the absorption maximum (in CCOC(C)=O) was 417 nm. It also gave an absorption maximum (in CN(C)C=O) of 425 nm, an absorption maximum (in CO) of 428 nm and an absorption maximum (in CS(C)=O) of 426 nm. It also gave an absorption maximum (in Cc1ccccc1) of 405 nm, an absorption maximum (in ClC(Cl)(Cl)Cl) of 419 nm and an absorption maximum (in ClCCl) of 408 nm. For the same compound, the absorption maximum (in O) was 405 nm and the absorption maximum (in c1ccccc1) was 420 nm.
Work on COOCc1noc(-c2ccccc2)c1Cl yielded an absorption maximum (in C1CCCCC1) of 277 nm.
COc1ccsc1-c1ccc(-c2ccc(-c3sccc3OC)s2)s1 showed an absorption maximum (in CCCCCCCCCCCCCC) of 409 nm.
Compound N#Cc1c(N2CCCCC2)cc(-c2ccc3ccc4cccc5ccc2c3c45)c2c1C(=O)c1ccccc1-2 has an absorption maximum (in C1CCOC1) of 344 nm.
In the case of CCOC(=O)c1cc(C(=O)OCC)c2cccc(O)c2n1, the absorption maximum (in CCO) is reported as 369 nm.
Work on Nc1nc2c([nH]c(=O)n2[C@H]2C[C@H](O)[C@@H](CO)O2)c(=O)[nH]1 yielded an absorption maximum (in O) of 294.99 nm.
Compound CCn1c2ccccc2c2cc(/C=C3\C(=O)c4ccccc4S3(=O)=O)ccc21 has an absorption maximum (in C1CCOC1) of 446 nm, an absorption maximum (in C1COCCO1) of 443 nm and an absorption maximum (in CC#N) of 442 nm. It also gave an absorption maximum (in CC(C)=O) of 442 nm, an absorption maximum (in CCOC(C)=O) of 441 nm and an absorption maximum (in CN(C)C=O) of 449 nm. It also gave an absorption maximum (in CO) of 446 nm, an absorption maximum (in CS(C)=O) of 454 nm and an absorption maximum (in Cc1ccccc1) of 453 nm. It also gave an absorption maximum (in ClC(Cl)Cl) of 454 nm and an absorption maximum (in ClCCl) of 448 nm.
For Nc1cccc2c1-c1ccccc1C2=O, the absorption maximum (in C1CCCCC1) was 427 nm, the absorption maximum (in CC#N) was 451 nm and the absorption maximum (in CCO) was 458 nm. For the same compound, the absorption maximum (in c1ccccc1) was 440 nm.
Work on CC(C)(C)c1ccc(C#Cc2cc3ccc4cc(C#Cc5ccc(C(C)(C)C)cc5)cc5ccc(c2)c3c45)cc1 yielded an absorption maximum (in ClCCl) of 410 nm.
With C=CCNc1ccc2ccc3oc4cc(=[N+]5CCCC5)ccc-4nc3c2c1 the absorption maximum (in CC#N) was 576 nm, the absorption maximum (in CCO) was 570 nm and the absorption maximum (in ClCCl) was 588 nm. For the same compound, the absorption maximum (in O) was 556 nm.
With CC[n+]1c(-c2ccccc2)c2cc(-n3cccc3)ccc2c2ccc(N)cc21 the absorption maximum (in O) was 462 nm.
